Measured values taken from patent US20120065198A2, “Detection and Treatment of Schizophrenia” (Tokai University Educational System, priority 2007, published 2012).

Columns and labels:
[1] = system: pentosidine formation; assay: Inhibitory activity on pentosidine formation, samples incubated with BSA and arabinose; type: biochemical; settings: incubated with BSA and arabinose instead of patient plasma
Protocol: (§1) Plasma was collected from hemodialysis patients prior to dialysis with the patients' consent, and the plasma was filtered and sterilized. To the plasma (450 μL) was added solutions of TM-2002 in dimethylsulfoxide (50 μL) (final concentrations: 0.8, 2.0, and 5.0 mM), and the mixtures were incubated for 1 week at 37° C. The levels of the pentosidine formation were measured.
(§2) Pentosidine was measured as follows. To each sample (50 μL) after incubation was added an equal volume of 10% trichloroacetic acid, and the mixture was subsequently centrifuged at 5,000 g for 5 minutes. After the supernatant was removed, the pellet was washed with 5% trichloroacetic acid (300 μL). The pellet was dried under reduced pressure, and subsequently hydrolyzed in a 6N HCl solution (100 μL) under a nitrogen atmosphere for 16 hours at 110° C. To the acid hydrolysate was then added 5N NaOH (100 μL) and 0.5 M phosphate buffer (pH 7.4) (200 μL); the mixture was subsequently filtered through a micropore filter with 0.5 μm pores and diluted with PBS. The concentration of the released pentosidine was measured by reverse-phase HPLC using a fluorescence detector (RF-10A, Shimadzu Corporation) (Miyata, T. et al.; Proc. Natl. Acad. Sci. USA, Vol. 93, p. 2353-2358, 1996). The effluent was monitored at the excitation/emission wavelength of 335/385 nm. Synthetic pentosidine was used as the reference material. The detection limit of pentosidine was 0.1 pmol/mg protein.
(2) Other edaravone analogues (Compounds (1) or (2)) were investigated for their inhibitory activities on pentosidine formation in the same manner as in Section (1) above, except that the samples were incubated with BSA and arabinose instead of the patient plasma. In the tables, “-” means that the test was not conducted.

[2] = system: pentosidine formation; assay: Inhibitory effects of phenylene derivatives (II) on AGEs (pentosidine) formation; type: biochemical; set-up: AGE Formation Inhibition Ratio (%): concentration or dose not given beside the values; settings: same method used in Test Example 1
Protocol: as §1
as §2, with “protein. […]” for “protein.”

COC(=O)c1ccc(N2N=C(C)/C(=C/c3ccc(-c4ccc(S(N)(=O)=O)cc4)o3)C2=O)cc1 [compound 41, 4-{3-methyl-5-oxo-4-[5-(4-sulfamoyl-phenyl)-furan-2-ylmethylene]-4,5-dihydro-pyrazol-1-yl}-benzoic acid methyl ester]
Pentosidine Formation Ratio (%) at 5 mM Drug Concentration [1]: 37.81%

CC1=NN(c2ccccc2)C(=O)C12Sc1ccccc1C2=O (centres unmarked) [compound 28]
Pentosidine Formation Ratio (%) at 5 mM Drug Concentration [1]: 22.83%

COC(=O)c1cccc(-c2ccc(/C=C3\C(=O)N(c4ccc(S(C)(=O)=O)cc4)N=C3C)o2)c1 [compound 39]
Pentosidine Formation Ratio (%) at 5 mM Drug Concentration [1]: 16.87%

Cc1ncc2c(c1O)C(c1c(C)nn(-c3ccccc3)c1O)OC2 (centres unmarked) [compound 68]
Pentosidine Formation Ratio (%) at 5 mM Drug Concentration [1]: 2.82%

CC1=NN(c2cccc(F)c2)C(=O)/C1=C\c1ccc(N(C)C)cc1 [compound 35, 4-(4-dimethylamino-benzylidene)-2-(3-fluoro-phenyl)-5-methyl-2,4-dihydro-pyrazol-3-one]
Pentosidine Formation Ratio (%) at 5 mM Drug Concentration [1]: 76.31%

O=C(NC1=NN(c2ccccc2)C(=O)C1(O)S(=O)(=O)[O-])c1ccccc1.[Na+] (centres unmarked) [compound 27, Sodium 3-benzoylamino-4-hydroxy-5-oxo-1-phenyl-4,5-dihydro-1H-pyrazole-4-sulfonate]
Pentosidine Formation Ratio (%) at 5 mM Drug Concentration [1]: 2.83%

CC1=NN(c2ccc(C)cc2)C(=O)/C1=C/c1ccc(O)c(O)c1 [compound 44, 4-(3,4-dihydroxy-benzylidene)-5-methyl-2-p-toluyl-2,4-dihydro-pyrazol-3-one]
Pentosidine Formation Ratio (%) at 5 mM Drug Concentration [1]: 66.19%

CC1=NN(c2ccccc2)C(=O)/C1=C/c1ccc(O)cc1 [compound 70, 4-(4-hydroxy-benzylidene)-5-methyl-2-phenyl-2,4-dihydro-pyrazol-3-one]
Pentosidine Formation Ratio (%) at 5 Concentration ([1]; Table 13): 0.04%

COc1cc(/C=C2/C(=O)N(c3ccc(Cl)c(C(=O)O)c3)N=C2C)c(Cl)cc1O [compound 61, 2-chloro-5-[4-(2-chloro-4-hydroxy-5-methoxy-benzylidene)-3-methyl-5-oxo-4,5-dihydro-pyrazol-1-yl]-benzoic acid]
Pentosidine Formation Ratio (%) at 5 mM Drug Concentration [1]: 46.52%

CC1=NN(c2ccccc2)C(=O)/C1=C/N(C)C [compound 65, 4-dimethylaminomethylene-5-methyl-2-phenyl-2,4-dihydro-pyrazol-3-one]
Pentosidine Formation Ratio (%) at 5 mM Drug Concentration [1]: 62.43%

COc1cc(/C=C2\C(=O)N(c3ccc(Cl)cc3)N=C2C(F)(F)F)ccc1O [compound 47, 2-(4-chloro-phenyl)-4-(4-hydroxy-3-methoxy-benzylidene)-5-trifluoromethyl-2,4-dihydro-pyrazol-3-one]
Pentosidine Formation Ratio (%) at 5 mM Drug Concentration [1]: 28.86%

O=C1NC(=O)C(c2ccc(Cn3ccnc3-c3ccccc3)cc2)S1 (centres unmarked) [(II-16)]
AGE Formation Inhibition Ratio (%) [2]: 85%
Pentosidine Formation Ratio (%) [2]: 15%

O=C1NC(=O)C(c2ccc(CN(Cc3ccc(-c4ccccc4)cc3)c3cccc(C(=O)O)c3)cc2)S1 (centres unmarked) [(II-68)]
AGE Formation Inhibition Ratio (%) [2]: 80%
Pentosidine Formation Ratio (%) [2]: 20%

CCCCS(=O)(=O)N(Cc1ccc(C2SC(=O)NC2=O)cc1)c1cccc(C(=O)O)c1 (centres unmarked) [(II-11)]
AGE Formation Inhibition Ratio (%) [2]: 89%
Pentosidine Formation Ratio (%) [2]: 11%

O=C1NC(=O)C(c2ccc(CN(C(=O)CCc3ccccc3)c3cccc(C(=O)O)c3)cc2)S1 (centres unmarked) [(II-20)]
AGE Formation Inhibition Ratio (%) [2]: 92%
Pentosidine Formation Ratio (%) [2]: 8%

O=C(O)c1cccc(N(CCc2ccccc2)Cc2ccc(-c3ccccc3-c3nnn[nH]3)cc2)c1 [(II-32)]
AGE Formation Inhibition Ratio (%) [2]: 81%
Pentosidine Formation Ratio (%) [2]: 19%

O=C1NC(=O)C(c2ccc(CN(C(=O)c3ccc(-c4ccccc4)cc3)c3cccc(C(=O)O)c3)cc2)S1 (centres unmarked) [(II-21)]
AGE Formation Inhibition Ratio (%) [2]: 98%
Pentosidine Formation Ratio (%) [2]: 2%
